# Entries after “also recorded” stand apart in the source; their conditions may differ. {PEG40k} = 40 kDa polyethylene glycol
# How the values were obtained:
# Jurkat cells = assay: Proliferation of Jurkat cells in coculture with stromal MS-5 cells; assay type: cell-based, human; conditions: 40 hours
# Procedure: Aim of the experiment was to show whether SDF-1 binding Spiegelmer NOX-A12 has an impact on proliferation of leukemia cells in coculture with bone marrow (abbr. BM) stromal cells. Murine stromal MS-5 cells secreting SDF-1 were incubated with SDF-1 binding Spiegelmer NOX-A12 or the non-functional Spiegelmer revNOX-A12. The leukemic T-cell line Jurkat was added to the confluent stromal cell layer and incubated for 40 hours at 37° C. and 5% CO2. Cell numbers were quantified by Flow Cytometry using the Guava EasyCyte and ViaCount Reagent.
# The murine stromal cell line MS-5 (ACC 441) were purchased from the DSMZ and were cultured in MEM alpha GlutaMAX (Invitrogen) with 10% FBS and penicillin-streptomycin. For proliferation coculture experiments stromal MS-5 cells were seeded the day before onto 24-well plates (the inner eight wells) at a concentration of 8×10^4/mL/well in MEM alpha GlutaMAX medium (+10% FBS) and incubated at 37° C. in 5% CO2. The confluent stromal cell layer was washed and 0.5 mL RPMI medium 1640 (+1% FBS) was added to the wells. […] 2×10^5 Jurkat cells (logarithmic growth phase; washed once) in RPMI medium 1640 (+1% FBS) were added to the confluent stromal cell layer and incubated for […] at 37° C. with 5% CO2. […] Cell viability and cell number were determined by Flow Cytometry using the Guava EasyCyte 6HT/2L.
# SDF-1 = SDF-1 (Homo sapiens, UniProt P48061); assay: Inhibition of SDF-1-induced chemotaxis, U937 cells; assay type: cell-based; conditions: 3 nM human SDF-1
# Sequence of SDF-1 (P48061 22-89): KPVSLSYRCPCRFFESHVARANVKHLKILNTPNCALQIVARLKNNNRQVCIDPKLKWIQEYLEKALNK
# Procedure: The human T cell leukemia cell line Jurkat, the human leukemic monocyte lymphoma cell line U937, the human pre-B cell leukemia cell line BV-173 and human pre-B ALL cell line Nalm-6 express CXCR4. […] All cells used were obtained from the DSMZ (Braunschweig). All cell lines were cultivated at 37° C. and 5% CO2 in RPMI 1640 medium with Glutamax (Invitrogen, Karlsruhe, Germany) which contains 10% fetal bovine serum, 100 units/ml penicillin and 100 μg/ml streptomycin (Invitrogen, Karlsruhe, Germany). One day before the experiment, cells were seeded in a new T175 flask with a density of 0.3×10^6/ml (Jurkat, U937, BV-173) or 0.75×10^6/ml (Nalm-6), respectively.
# For the experiment, cells were centrifuged (5 min at 300 g), resuspended, counted and washed once with 15 ml HBH (Hanks balanced salt solution containing 1 mg/ml bovine serum albumin and 20 mM HEPES; Invitrogen, Karlsruhe, Germany). Then the cells were resuspended at 1.33×10^6/ml (Jurkat, U937, BV-173) or 2.67×10^6/ml (Nalm-6), respectively. […]
# For evaluation, fluorescence values were corrected for background fluorescence (no cells in well). Then the difference between experimental conditions with and without SDF-1 was calculated. The value for the sample without Spiegelmer (SDF-1 only) was set 100% and the values for the samples with Spiegelmer were calculated as percent of this. […]
# [1] = system: SDF-1 induced sprouting, rings from rat aorta; assay: Aortic ring sprouting assay; assay type: cell-based; conditions: 10 nM SDF-1 + 1 μM Spiegelmer, 6 days; listed as 193-G2-012-5′-PEG
# Procedure: After 6 to 7 days, sprouting (i.e. outgrowth of endothelial cells) was analysed by taking pictures and determining a sprouting index.
# Aortae from male rats were obtained from Bagheri Life sciences (Berlin, Germany). The aortae were prepared freshly and transported on ice in MCDB 131-Medium (Invitrogen, Karlsruhe, Germany) containing 50 units/ml penicillin, 50 μg/ml streptomycin (both Invitrogen, Karlsruhe, Germany) and 2.5 μg/ml fungizone (Cambrex, USA).
# For an experiment a single aorta was transferred to a cell culture dish together with the medium and residual connective tissue was removed. Then the aorta was cut with a scalpel into rings of about 1 to 2 mm length. The rings were washed intensively (at least five times) in Medium199 (Invitrogen, Karlsruhe, Germany) and then placed in wells of a 24 well plate, containing 450 μl of collagen solution per well. […]
# Sprouting was documented by taking pictures with a digital camera. […] Pictures were analysed with the Scion Image image processing software. […] A plot histogram along this line was generated by the software, histograms were printed and peaks (representing sprouts crossing the line) were counted. […] 4 to 5 rings per condition were evaluated. […]
substance,measurement,setting,value
"5′-40 kDa-PEG-GCGUGGUGUGAUCUAGAUGUAUUGGCUGAUCCUAGUCAGGUACGC (5' {PEG40k}, sugars by position and backbone not given here) [NOX-A12]",effect on Jurkat cell number,Jurkat cells; 1 nM,no effect
same,reduction of Jurkat cell number,Jurkat cells; 10 or 100 nM,up to 20%
same,inhibition of SDF-1 induced chemotaxis,SDF-1,Inhibition
same,blockage of SDF-1 induced sprouting (sprouting index),[1],significantly different from that for SDF-1; also recorded: could be blocked

# — US9387221B2, “SDF-1 binding nucleic acids and the use thereof in cancer treatment” (NOXXON Pharma AG, priority 2010, dated 2016)
